Measured values published in PubChem BioAssay (NCI).
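Exposure lasted 48 hours, with cells grown in 96-well plates and compounds tested at five concentrations. TGI is the concentration that stops growth completely.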

Tests used:
Test in all cases: growth of human tumour cells (NCI), 48 h
HT29 colon = system: HT29 colon
HL-60(TB) leukemia = system: HL-60(TB) leukemia
COLO 205 colon = system: COLO 205 colon
IGROV1 ovarian = system: IGROV1 ovarian
HCT-15 colon = system: HCT-15 colon
SN12C renal = system: SN12C renal
OVCAR-3 ovarian = system: OVCAR-3 ovarian
RXF 393 renal = system: RXF 393 renal
EKVX NSCLC = system: EKVX NSCLC
HCT-116 colon = system: HCT-116 colon
SK-MEL-5 melanoma = system: SK-MEL-5 melanoma
SK-MEL-2 melanoma = system: SK-MEL-2 melanoma
SNB-75 CNS = system: SNB-75 CNS
U251 CNS = system: U251 CNS
SF-268 CNS = system: SF-268 CNS
HS 578T breast = system: HS 578T breast
NCI-H522 lung = system: NCI-H522 lung
HCC-2998 colon = system: HCC-2998 colon
HOP-92 NSCLC = system: HOP-92 NSCLC
OVCAR-8 ovarian = system: OVCAR-8 ovarian
NCI-H460 lung = system: NCI-H460 lung
K-562 leukemia = system: K-562 leukemia
OVCAR-4 ovarian = system: OVCAR-4 ovarian
MDA-MB-231 breast = system: MDA-MB-231 breast
UO-31 renal = system: UO-31 renal
UACC-257 melanoma = system: UACC-257 melanoma
SK-MEL-28 melanoma = system: SK-MEL-28 melanoma
PC-3 prostate = system: PC-3 prostate
UACC-62 melanoma = system: UACC-62 melanoma
BT-549 breast = system: BT-549 breast
OVCAR-5 ovarian = system: OVCAR-5 ovarian
TK-10 renal = system: TK-10 renal
M14 melanoma = system: M14 melanoma
DU-145 prostate = system: DU-145 prostate
MDA-N = system: MDA-N
MOLT-4 leukemia = system: MOLT-4 leukemia
SW-620 colon = system: SW-620 colon
SR leukemia = system: SR leukemia
CCRF-CEM leukemia = system: CCRF-CEM leukemia
LOX IMVI melanoma = system: LOX IMVI melanoma
NCI/ADR-RES ovarian = system: NCI/ADR-RES ovarian
MDA-MB-435 = system: MDA-MB-435
SF-539 CNS = system: SF-539 CNS
NCI-H23 lung = system: NCI-H23 lung
MCF7 breast = system: MCF7 breast
A549 NSCLC = system: A549 NSCLC
SK-OV-3 ovarian = system: SK-OV-3 ovarian
RPMI-8226 leukemia = system: RPMI-8226 leukemia
CAKI-1 renal = system: CAKI-1 renal
ACHN renal = system: ACHN renal
SNB-19 CNS = system: SNB-19 CNS
KM12 colon = system: KM12 colon
SF-295 CNS = system: SF-295 CNS
T-47D breast = system: T-47D breast
786-0 renal = system: 786-0 renal
HOP-62 NSCLC = system: HOP-62 NSCLC
A498 renal = system: A498 renal
MALME-3M melanoma = system: MALME-3M melanoma
NCI-H226 lung = system: NCI-H226 lung

## NC(CCOCCP(=O)(O)CCC1C=CC=CC1)C(=O)O (stereo not given)
HT29 colon
  TGI: > 100 µM
HL-60(TB) leukemia
  TGI: > 100 µM
COLO 205 colon
  TGI: > 100 µM
IGROV1 ovarian
  TGI: > 100 µM
HCT-15 colon
  TGI: > 100 µM
SN12C renal
  TGI: > 100 µM
OVCAR-3 ovarian
  TGI: > 100 µM
RXF 393 renal
  TGI: > 100 µM
EKVX NSCLC
  TGI: > 100 µM
HCT-116 colon
  TGI: > 100 µM
SK-MEL-5 melanoma
  TGI: > 100 µM
SK-MEL-2 melanoma
  TGI: > 100 µM
SNB-75 CNS
  TGI: > 100 µM
U251 CNS
  TGI: > 100 µM
SF-268 CNS
  TGI: > 100 µM
HS 578T breast
  TGI: > 100 µM
NCI-H522 lung
  TGI: > 100 µM
HCC-2998 colon
  TGI: > 100 µM
HOP-92 NSCLC
  TGI: > 100 µM
OVCAR-8 ovarian
  TGI: > 100 µM
NCI-H460 lung
  TGI: > 100 µM
K-562 leukemia
  TGI: > 100 µM
OVCAR-4 ovarian
  TGI: > 100 µM
MDA-MB-231 breast
  TGI: > 100 µM
UO-31 renal
  TGI: > 100 µM
UACC-257 melanoma
  TGI: > 100 µM
SK-MEL-28 melanoma
  TGI: > 100 µM
PC-3 prostate
  TGI: > 100 µM
UACC-62 melanoma
  TGI: > 100 µM
BT-549 breast
  TGI: > 100 µM
OVCAR-5 ovarian
  TGI: > 100 µM
TK-10 renal
  TGI: > 100 µM
M14 melanoma
  TGI: > 100 µM
DU-145 prostate
  TGI: > 100 µM
MDA-N
  TGI: > 100 µM
MOLT-4 leukemia
  TGI: > 100 µM
SW-620 colon
  TGI: > 100 µM
SR leukemia
  TGI: > 100 µM
CCRF-CEM leukemia
  TGI: > 100 µM
LOX IMVI melanoma
  TGI: > 100 µM
NCI/ADR-RES ovarian
  TGI: > 100 µM
MDA-MB-435
  TGI: > 100 µM
SF-539 CNS
  TGI: > 100 µM
NCI-H23 lung
  TGI: > 100 µM
MCF7 breast
  TGI: > 100 µM
A549 NSCLC
  TGI: > 100 µM
SK-OV-3 ovarian
  TGI: > 100 µM
RPMI-8226 leukemia
  TGI: > 100 µM
CAKI-1 renal
  TGI: > 100 µM
ACHN renal
  TGI: > 100 µM
SNB-19 CNS
  TGI: > 100 µM
KM12 colon
  TGI: > 100 µM
SF-295 CNS
  TGI: > 100 µM
T-47D breast
  TGI: > 100 µM

## CN(CC(=O)O)Cc1c(O)c(Cl)cc(Cl)c1Cl
HT29 colon
  TGI: > 100 µM
HL-60(TB) leukemia
  TGI: 44.6 µM
786-0 renal
  TGI: > 100 µM
COLO 205 colon
  TGI: > 100 µM
IGROV1 ovarian
  TGI: > 100 µM
HCT-15 colon
  TGI: > 100 µM
SN12C renal
  TGI: > 100 µM
OVCAR-3 ovarian
  TGI: 38.8 µM
RXF 393 renal
  TGI: > 100 µM
EKVX NSCLC
  TGI: > 100 µM
HCT-116 colon
  TGI: > 100 µM
SK-MEL-5 melanoma
  TGI: > 100 µM
SK-MEL-2 melanoma
  TGI: > 100 µM
SNB-75 CNS
  TGI: > 100 µM
HOP-62 NSCLC
  TGI: > 100 µM
A498 renal
  TGI: > 100 µM
U251 CNS
  TGI: > 100 µM
SF-268 CNS
  TGI: > 100 µM
HS 578T breast
  TGI: > 100 µM
NCI-H522 lung
  TGI: > 100 µM
HOP-92 NSCLC
  TGI: > 100 µM
OVCAR-8 ovarian
  TGI: > 100 µM
NCI-H460 lung
  TGI: 75.4 µM
OVCAR-4 ovarian
  TGI: > 100 µM
MDA-MB-231 breast
  TGI: > 100 µM
UO-31 renal
  TGI: > 100 µM
UACC-257 melanoma
  TGI: 97.5 µM
SK-MEL-28 melanoma
  TGI: 97.4 µM
PC-3 prostate
  TGI: > 100 µM
UACC-62 melanoma
  TGI: 77.3 µM
BT-549 breast
  TGI: > 100 µM
OVCAR-5 ovarian
  TGI: > 100 µM
TK-10 renal
  TGI: > 100 µM
M14 melanoma
  TGI: > 100 µM
DU-145 prostate
  TGI: > 100 µM
MALME-3M melanoma
  TGI: > 100 µM
MDA-N
  TGI: > 100 µM
SW-620 colon
  TGI: > 100 µM
SR leukemia
  TGI: 90.9 µM
CCRF-CEM leukemia
  TGI: 50.4 µM
LOX IMVI melanoma
  TGI: > 100 µM
NCI/ADR-RES ovarian
  TGI: > 100 µM
MDA-MB-435
  TGI: > 100 µM
SF-539 CNS
  TGI: > 100 µM
NCI-H23 lung
  TGI: > 100 µM
MCF7 breast
  TGI: > 100 µM
A549 NSCLC
  TGI: > 100 µM
SK-OV-3 ovarian
  TGI: > 100 µM
RPMI-8226 leukemia
  TGI: > 100 µM
CAKI-1 renal
  TGI: > 100 µM
ACHN renal
  TGI: > 100 µM
SNB-19 CNS
  TGI: > 100 µM
KM12 colon
  TGI: > 100 µM
SF-295 CNS
  TGI: > 100 µM
NCI-H226 lung
  TGI: 92.1 µM
T-47D breast
  TGI: > 100 µM
